Measurements published in patent US11207310B2 (PRILENIA NEUROTHERAPEUTICS LTD., priority 2016, dated 2021).
Read-outs that look alike come from different tables or passages of the source.

Assays:
[1] = test system: patients with HD;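 as to Δ to placebo: UHDRS TFC Finance and ADL score, change from baseline: UHDRS Total Functional Capacity items for finances and ADL, each scored 0 to 3, where 3 means normal function and 0 means unable (finances) or total care (ADL)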
[2] = test system: patients with HD; settings: for PBA Irritability, Severity×Frequency, change from baseline, Wk 52 Δ to placebo: BL TFC≥7;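 as to Δ to placebo: UHDRS TFC Finance and ADL score, change from baseline: UHDRS Total Functional Capacity items for finances and ADL, each scored 0 to 3, where 3 means normal function and 0 means unable (finances) or total care (ADL)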
Experimental: The PBA-s is a brief semi-structured interview covering the most common behavioral and psychiatric manifestations of HD. […] Severity and frequency scores are multiplied to produce an overall ‘PBA score’ for each symptom.
The PBA-s is a brief semi-structured interview covering the most common behavioral and psychiatric manifestations of HD.
The total PBA score is calculated by the sum of all PBA-s scores across symptoms/domains.

[3] = test system: patients with HD; settings: 45 mg bid;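 as to Δ to placebo: UHDRS TFC Finance and ADL score, change from baseline: UHDRS Total Functional Capacity items for finances and ADL, each scored 0 to 3, where 3 means normal function and 0 means unable (finances) or total care (ADL)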

## CCCN1CCC(c2cccc(S(C)(=O)=O)c2)CC1 [pridopidine, 4-[3-(methylsulfonyl)phenyl]-1-propyl-piperidine]
[1]; 45 mg bid, Week 26, ALL, p value 0.1235
  PBA Lack of Initiative (Apathy), Severity×Frequency, change from baseline, Δ to placebo: −0.87
[1]; 45 mg bid, Week 26, Stage 1 BL TFC 11-13, p value 0.0703
  PBA Lack of Initiative (Apathy), Severity×Frequency, change from baseline, Δ to placebo: −1.85
[1]; 45 mg bid, early HD patients, week 52
  Problems Behavioral Assessment apathy sub-score compared with placebo: improved
[1]; 67.5 mg bid (printed head, heads shifted), Week 52, BL TFC>7, p value 0.0608
  PBA Lack of Initiative (Apathy), Severity×Frequency, change from baseline, Δ to placebo: −1.39
[1]; 67.5 mg bid (printed head, heads shifted), Week 52, Full analysis set, p value 0.0704
  PBA Lack of Initiative (Apathy), Severity×Frequency, change from baseline, Δ to placebo: −1.27
[1]; 67.5 mg bid, Week 26, ALL, p value 0.3437
  PBA Lack of Initiative (Apathy), Severity×Frequency, change from baseline, Δ to placebo: −0.53
[1]; 67.5 mg bid, Week 26, Stage 1 BL TFC 11-13, p value 0.1267
  PBA Lack of Initiative (Apathy), Severity×Frequency, change from baseline, Δ to placebo: −1.51
[1]; 90 mg bid (printed head, heads shifted), Week 52, BL TFC>7, p value 0.703
  PBA Lack of Initiative (Apathy), Severity×Frequency, change from baseline, Δ to placebo: −0.29
[1]; 90 mg bid (printed head, heads shifted), Week 52, Full analysis set, p value 0.7052
  PBA Lack of Initiative (Apathy), Severity×Frequency, change from baseline, Δ to placebo: 0.26
[1]; 90 mg bid, Week 26, ALL, p value 0.7198
  PBA Lack of Initiative (Apathy), Severity×Frequency, change from baseline, Δ to placebo: −0.2
[1]; 90 mg bid, Week 26, Stage 1 BL TFC 11-13, p value 0.1822
  PBA Lack of Initiative (Apathy), Severity×Frequency, change from baseline, Δ to placebo: −1.46
[1]; 112.5 mg bid (printed head, heads shifted), Week 52, BL TFC>7, p value 0.9734
  PBA Lack of Initiative (Apathy), Severity×Frequency, change from baseline, Δ to placebo: −0.02
[1]; 112.5 mg bid (printed head, heads shifted), Week 52, Full analysis set, p value 0.8599
  PBA Lack of Initiative (Apathy), Severity×Frequency, change from baseline, Δ to placebo: −0.12
[1]; 112.5 mg bid, Week 26, ALL, p value 0.6445
  PBA Lack of Initiative (Apathy), Severity×Frequency, change from baseline, Δ to placebo: −0.26
[1]; 112.5 mg bid, Week 26, Stage 1 BL TFC 11-13, p value 0.0089
  PBA Lack of Initiative (Apathy), Severity×Frequency, change from baseline, Δ to placebo: −2.62
[1]; Placebo (printed head, heads shifted), Week 52, BL TFC>7, p value 0.7346
  PBA Lack of Initiative (Apathy), Severity×Frequency, change from baseline, Δ to placebo: 0.26
[1]; Placebo (printed head, heads shifted), Week 52, Full analysis set, p value 0.9523
  PBA Lack of Initiative (Apathy), Severity×Frequency, change from baseline, Δ to placebo: −0.04
[2]; 45 mg bid, Week 26, ALL
  Change from baseline in PBA Depressed Mood, Severity×Frequency, Δ to placebo: −0.29
[2]; 45 mg bid, Week 26, ALL, p value 0.2864
  PBA Disoriented Behavior, Severity×Frequency, change from baseline, Δ to placebo: −0.2
[2]; 45 mg bid, Week 26, ALL, p value 0.8081
  PBA Obsessive-Compulsive, Severity×Frequency, change from baseline, Δ to placebo: 0.1
[2]; 45 mg bid, Week 26, Stage 1 BL TFC 11-13
  Change from baseline in PBA Depressed Mood, Severity×Frequency, Δ to placebo: −0.63
[2]; 45 mg bid, Week 26, Stage 1 BL TFC 11-13, p value 0.0035
  PBA Obsessive-Compulsive, Severity×Frequency, change from baseline, Δ to placebo: −2.11
[2]; 45 mg bid, Week 26, Stage 1 BL TFC 11-13, p value 0.0381
  PBA Disoriented Behavior, Severity×Frequency, change from baseline, Δ to placebo: −0.19
[2]; 45 mg bid, Week 52, ALL
  Change from baseline PBA Irritability, Severity×Frequency, Δ to placebo: −1.03
[2]; 45 mg bid, Week 52, ALL, p value 0.5733
  PBA Obsessive-Compulsive, Severity×Frequency, change from baseline, Δ to placebo: −0.24
[2]; 45 mg bid, Week 52, BL TFC<7, p value 0.0165
  PBA Irritability, Severity×Frequency, change from baseline, Δ to placebo: −2.42
[2]; 45 mg bid, Week 52, p value 0.1789
  PBA Irritability, Severity×Frequency, change from baseline, Wk 52 Δ to placebo: −0.59
[2]; 45 mg bid, Week 52, Stage 1 BL TFC 11-13, p value 0.007
  PBA Obsessive-Compulsive, Severity×Frequency, change from baseline, Δ to placebo: −2.73
[2]; 45 mg bid, Week 52, Stage 3-5 BL TFC 0-6, p value 0.0165
  PBA Irritability, Severity×Frequency, change from baseline, Δ to placebo: −2.42
[2]; 67.5 mg bid, Week 26, ALL
  Change from baseline in PBA Depressed Mood, Severity×Frequency, Δ to placebo: −0.65
[2]; 67.5 mg bid, Week 26, ALL, p value 0.1357
  PBA Disoriented Behavior, Severity×Frequency, change from baseline, Δ to placebo: −0.28
[2]; 67.5 mg bid, Week 26, ALL, p value 0.2512
  PBA Obsessive-Compulsive, Severity×Frequency, change from baseline, Δ to placebo: −0.45
[2]; 67.5 mg bid, Week 26, Stage 1 BL TFC 11-13
  Change from baseline in PBA Depressed Mood, Severity×Frequency, Δ to placebo: −2.01
[2]; 67.5 mg bid, Week 26, Stage 1 BL TFC 11-13, p value 0.0035
  PBA Obsessive-Compulsive, Severity×Frequency, change from baseline, Δ to placebo: −2.03
[2]; 67.5 mg bid, Week 26, Stage 1 BL TFC 11-13, p value 0.0615
  PBA Disoriented Behavior, Severity×Frequency, change from baseline, Δ to placebo: −0.16
[2]; 67.5 mg bid, Week 52, ALL
  Change from baseline PBA Irritability, Severity×Frequency, Δ to placebo: −0.63
[2]; 67.5 mg bid, Week 52, ALL, p value 0.5068
  PBA Obsessive-Compulsive, Severity×Frequency, change from baseline, Δ to placebo: −0.28
[2]; 67.5 mg bid, Week 52, BL TFC<7, p value 0.0429
  PBA Irritability, Severity×Frequency, change from baseline, Δ to placebo: −1.78
[2]; 67.5 mg bid, Week 52, p value 0.466
  PBA Irritability, Severity×Frequency, change from baseline, Wk 52 Δ to placebo: −0.33
[2]; 67.5 mg bid, Week 52, Stage 1 BL TFC 11-13, p value 0.0011
  PBA Obsessive-Compulsive, Severity×Frequency, change from baseline, Δ to placebo: −3.24
[2]; 67.5 mg bid, Week 52, Stage 3-5 BL TFC 0-6, p value 0.0429
  PBA Irritability, Severity×Frequency, change from baseline, Δ to placebo: −1.78
[2]; 90 mg bid, Week 26, ALL
  Change from baseline in PBA Depressed Mood, Severity×Frequency, Δ to placebo: −0.34
[2]; 90 mg bid, Week 26, ALL, p value 0.607
  PBA Disoriented Behavior, Severity×Frequency, change from baseline, Δ to placebo: −0.09
[2]; 90 mg bid, Week 26, ALL, p value 0.7541
  PBA Obsessive-Compulsive, Severity×Frequency, change from baseline, Δ to placebo: −0.12
[2]; 90 mg bid, Week 26, Stage 1 BL TFC 11-13
  Change from baseline in PBA Depressed Mood, Severity×Frequency, Δ to placebo: −0.84
[2]; 90 mg bid, Week 26, Stage 1 BL TFC 11-13, p value 0.0251
  PBA Obsessive-Compulsive, Severity×Frequency, change from baseline, Δ to placebo: −1.71
[2]; 90 mg bid, Week 26, Stage 1 BL TFC 11-13, p value 0.093
  PBA Disoriented Behavior, Severity×Frequency, change from baseline, Δ to placebo: −0.16
[2]; 90 mg bid, Week 52, ALL
  Change from baseline PBA Irritability, Severity×Frequency, Δ to placebo: −1.01
[2]; 90 mg bid, Week 52, ALL, p value 0.7508
  PBA Obsessive-Compulsive, Severity×Frequency, change from baseline, Δ to placebo: −0.13
[2]; 90 mg bid, Week 52, BL TFC<7, p value 0.0422
  PBA Irritability, Severity×Frequency, change from baseline, Δ to placebo: −1.79
[2]; 90 mg bid, Week 52, p value 0.0311
  PBA Irritability, Severity×Frequency, change from baseline, Wk 52 Δ to placebo: −0.95
[2]; 90 mg bid, Week 52, Stage 1 BL TFC 11-13, p value 0.021
  PBA Obsessive-Compulsive, Severity×Frequency, change from baseline, Δ to placebo: −2.47
[2]; 90 mg bid, Week 52, Stage 3-5 BL TFC 0-6, p value 0.0422
  PBA Irritability, Severity×Frequency, change from baseline, Δ to placebo: −1.79
[2]; 112.5 mg bid, Week 26, ALL
  Change from baseline in PBA Depressed Mood, Severity×Frequency, Δ to placebo: −0.52
[2]; 112.5 mg bid, Week 26, ALL, p value 0.1061
  PBA Obsessive-Compulsive, Severity×Frequency, change from baseline, Δ to placebo: −0.63
[2]; 112.5 mg bid, Week 26, ALL, p value 0.6771
  PBA Disoriented Behavior, Severity×Frequency, change from baseline, Δ to placebo: −0.08
[2]; 112.5 mg bid, Week 26, Stage 1 BL TFC 11-13
  Change from baseline in PBA Depressed Mood, Severity×Frequency, Δ to placebo: −1.43
[2]; 112.5 mg bid, Week 26, Stage 1 BL TFC 11-13, p value 0.0114
  PBA Obsessive-Compulsive, Severity×Frequency, change from baseline, Δ to placebo: −1.73
[2]; 112.5 mg bid, Week 26, Stage 1 BL TFC 11-13, p value 0.0357
  PBA Disoriented Behavior, Severity×Frequency, change from baseline, Δ to placebo: −0.18
[2]; 112.5 mg bid, Week 52, ALL
  Change from baseline PBA Irritability, Severity×Frequency, Δ to placebo: −0.84
[2]; 112.5 mg bid, Week 52, ALL, p value 0.7789
  PBA Obsessive-Compulsive, Severity×Frequency, change from baseline, Δ to placebo: −0.12
[2]; 112.5 mg bid, Week 52, BL TFC<7, p value 0.0542
  PBA Irritability, Severity×Frequency, change from baseline, Δ to placebo: −1.71
[2]; 112.5 mg bid, Week 52, p value 0.1927
  PBA Irritability, Severity×Frequency, change from baseline, Wk 52 Δ to placebo: −0.6
[2]; 112.5 mg bid, Week 52, Stage 1 BL TFC 11-13, p value 0.005
  PBA Obsessive-Compulsive, Severity×Frequency, change from baseline, Δ to placebo: −2.73
[2]; 112.5 mg bid, Week 52, Stage 3-5 BL TFC 0-6, p value 0.0542
  PBA Irritability, Severity×Frequency, change from baseline, Δ to placebo: −1.71
[3]; BL CAG Repeat >44, week 26
  Δ to placebo: UHDRS TFC Finance and ADL score, change from baseline: 0.55
[3]; BL TFC≥9, week 26
  Δ to placebo: UHDRS TFC Finance and ADL score, change from baseline: 0.53
[3]; BL TFC≥9 and BL TMS 1st 3 Qs, week 26
  Δ to placebo: UHDRS TFC Finance and ADL score, change from baseline: 0.53
[3]; BL TFC≥9 and CAG Repeat >44, week 26
  Δ to placebo: UHDRS TFC Finance and ADL score, change from baseline: 0.74
[3]; BL TFC≥9 and CAG Repeats <44 and BL TMS 1st 3 Qs, week 26
  Δ to placebo: UHDRS TFC Finance and ADL score, change from baseline: 0.74
[3]; BL TFC≥9 or CAG Repeat >44, week 26
  Δ to placebo: UHDRS TFC Finance and ADL score, change from baseline: 0.5
[3]; CAG Repeats <44 and BL TMS 1st 3 Qs, week 26
  Δ to placebo: UHDRS TFC Finance and ADL score, change from baseline: 0.59
[3]; TMS 1st 2Qs, week 26
  Δ to placebo: UHDRS TFC Finance and ADL score, change from baseline: 0.48
[3]; TMS 1st 2Qs, week 52
  Δ to placebo: UHDRS TFC Finance and ADL score, change from baseline: 0.47
[3]; TMS 1st 3Qs, week 26
  Δ to placebo: UHDRS TFC Finance and ADL score, change from baseline: 0.18
[3]; TMS 1st 3Qs, week 52
  Δ to placebo: UHDRS TFC Finance and ADL score, change from baseline: 0.52
[3]; TMS 1st Q, week 26
  Δ to placebo: UHDRS TFC Finance and ADL score, change from baseline: 0.63
[3]; TMS 1st Q, week 52
  Δ to placebo: UHDRS TFC Finance and ADL score, change from baseline: 0.71
